Results reported in patent US9567345B2, “Pharmaceutically active pyrazolo-triazine derivatives” (LEAD DISCOVERY CENTER GMBH, priority 2012, dated 2017).
Read-outs that look alike come from different tables or passages of the source.

What was measured:
CDK7/CycH/Mat1 = CDK7/CycH/Mat1 (Homo sapiens, UniProt P50613); assay: CDK7 Enzymatic Activity Assay (Lance Kinase Activity Assay, FRET); type: biochemical
Method: (§1) This protocol describes how the Lance Kinase Activity Assay was performed to determine IC50 values of compounds of general formula (I) against CDK/Cyclin complexes. The principle behind this enzymatic assay is based upon the phosphorylation of the Ulight-Peptide Substrat. It is detected by using a specific EU-labeled anti-phospho peptide antibody.
(§2) Binding of an inhibitor to the kinase prevents phosphorylation of the Ulight-MBP Substrat, resulting in a loss of FRET.
CDK7 Enzymatic Activity Assay
(§3) The compounds of general formula (I) exemplary summarized in Table 1 were diluted from a 10 mM DMSO stock solution 1:10 in a total volume of 15 μl DMSO. This compound predilution was then serial diluted 1:3 over 8 steps in DMSO and briefly spun down. Each compound solution was now diluted 1:20 in Enzymatic Buffer (HEPES: 50 mM, pH: 7.5; MgCl2: 10 mM; EGTA: 1 mM; DTT: 2 mM; Tween-20: 0.01%), mixed thoroughly and spun down.
(§4) For positive controls, 2 μl of DMSO working solution were mixed with 6 μl CDK7/CycH/Mat1/substrate working solution and 2 μl ATP working solution. Positive and negative controls were calculated from at least 8 different wells. The 384 well plates were mixed in a Teleshaker plate mixer (Beckman Coulter, Brea, Calif., USA) at 2000 rpm for 40 sec, and incubated for 1 h at room temperature before addition of 10 μl LANCE Detection Buffer (1×; EDTA: […]; Eu-Anti-P-MBP: 4 nM) per well. Plates were mixed in a Teleshaker plate mixer (Beckman Coulter, Brea, Calif., USA) at 2000 rpm for 40 sec, followed by incubation with Detection Buffer for 1 h, and reading. […] IC50 values were determined from the sigmoidal dose response curves with the software Quattro Workflow (Quattro GmbH, Munich, Germany).

CDK9/Cyclin T1 = CDK9/Cyclin T1 (Homo sapiens, UniProt P50750); assay: CDK9 Enzymatic Activity Assay (Lance Kinase Activity Assay, FRET); type: biochemical; conditions: for IC50: Table 5B, class symbols per IC50 [nM] ranges of b581, read-out: CDK9: Selectivity of CDK7 inhibition over CDK9 inhibition
Method: as §1, §2
CDK9 Enzymatic Activity Assay
as §3
as §4, with “CDK9/cyclin T1/substrate” for “CDK7/CycH/Mat1/substrate”

[1] = CDK7/CycH/Mat1, 25 μM ATP final, class ranges, read-out: CDK7: IC50 [nM] for CDK7 inhibition

CDK7/CycH/Mat1, sequence (P50613 whole entry): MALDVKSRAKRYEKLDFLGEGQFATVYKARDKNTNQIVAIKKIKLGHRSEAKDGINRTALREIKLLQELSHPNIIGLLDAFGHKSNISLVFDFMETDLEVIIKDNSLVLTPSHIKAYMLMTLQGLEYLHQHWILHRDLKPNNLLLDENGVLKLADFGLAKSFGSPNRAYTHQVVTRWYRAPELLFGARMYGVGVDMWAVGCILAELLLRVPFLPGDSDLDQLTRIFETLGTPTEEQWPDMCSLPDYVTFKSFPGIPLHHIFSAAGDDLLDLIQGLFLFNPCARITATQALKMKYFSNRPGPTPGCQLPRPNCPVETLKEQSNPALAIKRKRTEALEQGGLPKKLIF
CDK9/Cyclin T1, sequence (P50750 whole entry): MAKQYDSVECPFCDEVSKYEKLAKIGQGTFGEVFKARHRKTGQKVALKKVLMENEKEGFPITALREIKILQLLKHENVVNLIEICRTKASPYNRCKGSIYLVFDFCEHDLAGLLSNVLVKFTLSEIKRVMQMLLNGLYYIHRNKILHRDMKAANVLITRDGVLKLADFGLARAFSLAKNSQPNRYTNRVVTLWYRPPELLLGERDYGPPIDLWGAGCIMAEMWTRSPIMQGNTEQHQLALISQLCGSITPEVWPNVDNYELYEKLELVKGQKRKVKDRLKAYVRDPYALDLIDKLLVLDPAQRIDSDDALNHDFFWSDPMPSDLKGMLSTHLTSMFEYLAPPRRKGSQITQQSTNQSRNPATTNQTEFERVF
CDK9/Cyclin T1, sequence (O60563 whole entry partner): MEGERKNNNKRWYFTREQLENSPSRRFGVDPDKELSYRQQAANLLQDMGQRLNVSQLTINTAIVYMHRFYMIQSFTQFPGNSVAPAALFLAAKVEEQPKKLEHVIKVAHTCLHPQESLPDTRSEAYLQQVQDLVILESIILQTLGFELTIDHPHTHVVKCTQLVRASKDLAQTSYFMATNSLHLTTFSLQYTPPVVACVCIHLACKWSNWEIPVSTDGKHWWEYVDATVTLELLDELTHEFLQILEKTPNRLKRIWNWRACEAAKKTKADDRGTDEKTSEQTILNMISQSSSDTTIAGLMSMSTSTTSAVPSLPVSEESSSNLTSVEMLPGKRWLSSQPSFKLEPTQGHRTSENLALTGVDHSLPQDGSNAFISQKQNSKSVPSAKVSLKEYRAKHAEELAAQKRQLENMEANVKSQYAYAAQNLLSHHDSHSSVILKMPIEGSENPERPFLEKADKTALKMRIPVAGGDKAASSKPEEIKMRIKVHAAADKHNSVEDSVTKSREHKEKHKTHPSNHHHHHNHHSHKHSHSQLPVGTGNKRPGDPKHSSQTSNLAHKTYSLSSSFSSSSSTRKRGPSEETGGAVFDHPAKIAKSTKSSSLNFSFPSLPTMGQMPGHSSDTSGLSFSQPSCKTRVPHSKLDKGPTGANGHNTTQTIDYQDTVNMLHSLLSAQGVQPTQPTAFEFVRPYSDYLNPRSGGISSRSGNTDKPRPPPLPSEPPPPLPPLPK

| Compound | IC50 (CDK7/CycH/Mat1; [1]) | IC50 (CDK9/Cyclin T1) | further results |
| --- | --- | --- | --- |
| CC(C)c1cnn2c(NCc3ccccc3-n3cccn3)nc(OC3CC4(CNC4)C3)nc12 [(VII-04), N-(2-(1H-pyrazol-1-yl)benzyl)-2-(2-azaspiro[3.3]heptan-6-yloxy)-8-isopropylpyrazolo[1,5-a][1,3,5]triazin-4-amine] | < 5 nM | – | – |
| COc1ccccc1[C@H](C)Nc1nc(O[C@@H]2CCCNC2)nc2c(C(C)C)cnn12 [(VII-10), 8-isopropyl-N-((S)-1-(2-methoxyphenyl)ethyl)-2-((R)-piperidin-3-yloxy)pyrazolo[1,5-a][1,3,5]triazin-4-amine] | < 5 nM | 500 to 2500 nM | – |
| COc1ccccc1[C@H](C)Nc1nc(OC2CCNCC2)nc2c(C(C)C)cnn12 [(VII-15), (S)-8-isopropyl-N-(1-(2-methoxyphenyl)ethyl)-2-(piperidin-4-yloxy)pyrazolo[1,5-a][1,3,5]triazin-4-amine] | < 5 nM | > 2500 nM | – |
| CC(C)Oc1ccccc1CNc1nc(OC2CCNCC2)nc2c(C(C)C)cnn12 [(VII-17), N-(2-isopropoxybenzyl)-8-isopropyl-2-(piperidin-4-yloxy)pyrazolo[1,5-a][1,3,5]triazin-4-amine] | < 5 nM | > 2500 nM | – |
| CC(C)c1cnn2c(NCc3ccccc3Oc3ccccc3)nc(OC3CCN(C)CC3)nc12 [(VII-47), 8-isopropyl-2-((1-methylpiperidin-4-yl)oxy)-N-(2-phenoxybenzyl)pyrazolo[1,5-a][1,3,5]triazin-4-amine] | < 5 nM | – | – |
| Cc1ccccc1CNc1nc(OC2CCN(C)CC2)nc2c(C(C)C)cnn12 [(VII-53), 8-isopropyl-N-(2-methylbenzyl)-2-((1-methylpiperidin-4-yl)oxy)pyrazolo[1,5-a][1,3,5]triazin-4-amine] | 5 to 10 nM | 50 to 500 nM | – |
| CC(C)c1cnn2c(NCc3ccccc3N(C)C)nc(OC3CCN(C)CC3)nc12 [(VII-54), N-(2-(dimethylamino)benzyl)-8-isopropyl-2-((1-methylpiperidin-4-yl)oxy)pyrazolo[1,5-a][1,3,5]triazin-4-amine] | 5 to 10 nM | 50 to 500 nM | – |
| CC(C)c1cnn2c(NCc3ccccc3C#N)nc(OC3CCN(C)CC3)nc12 [(VII-55), 2-(((8-isopropyl-2-((1-methylpiperidin-4-yl)oxy)pyrazolo[1,5-a][1,3,5]triazin-4-yl)amino)methyl)benzonitrile] | 10 to 25 nM | > 2500 nM | – |
| CC(C)c1cnn2c(NCc3ccccc3-c3ccccc3)nc(OC3CCN(C)CC3)nc12 [(VII-57), N-([1,1′-biphenyl]-2-ylmethyl)-8-isopropyl-2-((1-methylpiperidin-4-yl)oxy)pyrazolo[1,5-a][1,3,5]triazin-4-amine] | < 5 nM | > 2500 nM | Selectivity CDK7 over CDK9 (CDK9/Cyclin T1; Table 6): 909 fold; IC50 (CDK7/CycH/Mat1; Table 6, read-out: IC50 CDK7): < 5 nM |
| CC(C)c1cnn2c(NCc3ccccc3C(F)(F)F)nc(OC3CCN(C)CC3)nc12 [(VII-058), 8-isopropyl-2-((1-methylpiperidin-4-yl)oxy)-N-(2-(trifluoromethyl)benzyl)pyrazolo[1,5-a][1,3,5]triazin-4-amine] | > 25 nM | – | – |
| CC(C)c1cnn2c(NCc3ccccc3N3CCOCC3)nc(OC3CCN(C)CC3)nc12 [(VII-60), 8-isopropyl-2-((1-methylpiperidin-4-yl)oxy)-N-(2-morpholinobenzyl)pyrazolo[1,5-a][1,3,5]triazin-4-amine] | > 25 nM | > 2500 nM | – |
| Cc1cccc(Cl)c1CNc1nc(OC2CCN(C)CC2)nc2c(C(C)C)cnn12 [(VII-62), N-(2-chloro-6-methylbenzyl)-8-isopropyl-2-((1-methylpiperidin-4-yl)oxy)pyrazolo[1,5-a][1,3,5]triazin-4-amine] | 10 to 25 nM | > 2500 nM | – |
| CC(C)c1cnn2c(NCc3ccccc3)nc(OC3CCN(C)CC3)nc12 [C-I, reference compound] | – | – | IC50 (CDK7/CycH/Mat1; Table 6, read-out: IC50 CDK7): < 5 nM |
| CC(C)c1cnn2c(NCc3ccccc3)nc(O[C@@H]3CCCNC3)nc12 [C-II, reference compound] | – | – | IC50 (CDK7/CycH/Mat1; Table 6, read-out: IC50 CDK7): < 5 nM |

The next lines start with results.

| IC50 (CDK7/CycH/Mat1; [1]) | IC50 (CDK9/Cyclin T1) | Compound | further results |
| --- | --- | --- | --- |
| < 5 nM | 500 to 2500 nM | CC(C)c1cnn2c(NCc3ccccc3-n3ccnc3)nc(OC3CCNCC3)nc12 [(VII-19), N-(2-(1H-imidazol-1-yl)benzyl)-8-isopropyl-2-(piperidin-4-yloxy)pyrazolo[1,5-a][1,3,5]triazin-4-amine] | – |
| < 5 nM | 500 to 2500 nM | CC(C)c1cnn2c(NCc3ccccc3-n3cncn3)nc(O[C@@H]3CCCNC3)nc12 [(VII-20), (R)-N-(2-(1H-1,2,4-triazol-1-yl)benzyl)-8-isopropyl-2-(piperidin-3-yloxy)pyrazolo[1,5-a][1,3,5]triazin-4-amine] | – |
| < 5 nM | > 2500 nM | Cc1nccn1-c1ccccc1CNc1nc(OC2CCNCC2)nc2c(C(C)C)cnn12 [(VII-24), 8-isopropyl-N-(2-(2-methyl-1H-imidazol-1-yl)benzyl)-2-(piperidin-4-yloxy)pyrazolo[1,5-a][1,3,5]triazin-4-amine] | – |
| < 5 nM | > 2500 nM | Cc1nccn1-c1ccccc1CNc1nc(O[C@@H]2CCNC2)nc2c(C(C)C)cnn12 [(VII-25), (R)-8-isopropyl-N-(2-(2-methyl-1H-imidazol-1-yl)benzyl)-2-(pyrrolidin-3-yloxy)pyrazolo[1,5-a][1,3,5]triazin-4-amine] | – |
| < 5 nM | > 2500 nM | CC(C)c1cnn2c(N[C@@H](C)c3ccccc3Cl)nc(O[C@@H]3CCCNC3)nc12 [(VII-28), N-((S)-1-(2-chlorophenyl)ethyl)-8-isopropyl-2-((R)-piperidin-3-yloxy)pyrazolo[1,5-a][1,3,5]triazin-4-amine] | – |
| > 25 nM | > 2500 nM | CC(C)c1cnn2c(NCc3ccccc3N3CCC3=O)nc(O[C@@H]3CCCNC3)nc12 [(VII-40), (R)-1-(2-(((8-isopropyl-2-(piperidin-3-yloxy)pyrazolo[1,5-a][1,3,5]triazin-4-yl)amino)methyl)phenyl)azetidin-2-one] | – |
| < 5 nM | > 2500 nM | CC(C)c1cnn2c(NCc3ccccc3-c3cccnc3)nc(OC3CCN(C)CC3)nc12 [(VII-45), 8-isopropyl-2-((1-methylpiperidin-4-yl)oxy)-N-(2-(pyridin-3-yl)benzyl)pyrazolo[1,5-a][1,3,5]triazin-4-amine] | – |
| < 5 nM | > 2500 nM | CC(C)c1cnn2c(NCc3ccccc3-c3cccnc3)nc(O[C@@H]3CCCNC3)nc12 [(VII-46), (R)-8-isopropyl-2-(piperidin-3-yloxy)-N-(2-(pyridin-3-yl)benzyl)pyrazolo[1,5-a][1,3,5]triazin-4-amine] | – |
| < 5 nM | – | CC(C)c1cnn2c(NCc3ccccc3Oc3ccccc3)nc(O[C@@H]3CCCNC3)nc12 [(VII-48), (R)-8-isopropyl-N-(2-phenoxybenzyl)-2-(piperidin-3-yloxy)pyrazolo[1,5-a][1,3,5]triazin-4-amine] | – |
| < 5 nM | – | CC(C)c1cnn2c(NCc3ccccc3-c3ncco3)nc(O[C@@H]3CCCNC3)nc12 [(VII-49), (R)-8-isopropyl-N-(2-(oxazol-2-yl)benzyl)-2-(piperidin-3-yloxy)pyrazolo[1,5-a][1,3,5]triazin-4-amine] | – |
| < 5 nM | – | CC(C)c1cnn2c(NCc3ccccc3-c3ccco3)nc(O[C@@H]3CCCNC3)nc12 [(VII-50), (R)-N-(2-(furan-2-yl)benzyl)-8-isopropyl-2-(piperidin-3-yloxy)pyrazolo[1,5-a][1,3,5]triazin-4-amine] | – |
| < 5 nM | – | CC(=O)Nc1ccccc1CNc1nc(O[C@@H]2CCCNC2)nc2c(C(C)C)cnn12 [(VII-51), (R)-N-(2-(((8-isopropyl-2-(piperidin-3-yloxy)pyrazolo[1,5-a][1,3,5]triazin-4-yl)amino)methyl)phenyl)acetamide] | IC50 (CDK7/CycH/Mat1; Table 7, read-out: IC50 CDK7): < 5 nM |
| 10 to 25 nM | – | CC(C)c1cnn2c(NCc3ccccc3NC(=O)Nc3ccccc3)nc(O[C@@H]3CCCNC3)nc12 [(VII-111), (R)-1-(2-(((8-isopropyl-2-(piperidin-3-yloxy)pyrazolo[1,5-a][1,3,5]triazin-4-yl)amino)methyl)phenyl)-3-phenylurea] | – |
| 10 to 25 nM | – | CC(C)c1cnn2c(NCc3ccccc3-n3cccn3)nc(OC3CNC3)nc12 [(VII-141), N-(2-(1H-pyrazol-1-yl)benzyl)-2-(azetidin-3-yloxy)-8-isopropylpyrazolo[1,5-a][1,3,5]triazin-4-amine] | – |
